For 17 compounds, TGI results are on record in PubChem BioAssay (NCI).

Molecules are shown by their SMILES.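 Step 1: Grow cells in 96-well plates. Step 2: Expose to compound for 48 hours at 5 concentrations. Step 3: Interpolate endpoints linearly; if unreached, use highest concentration. TGI is the concentration that stops growth completely.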

Some test systems named below: HT29 colon; TK-10 renal; SR leukemia; 786-0 renal; OVCAR-8 ovarian; RXF 393 renal; SF-539 CNS; NCI/ADR-RES ovarian; T-47D breast; PC-3 prostate.
Holding throughout (experiment): inhibition of tumour cell growth, NCI panel, 48 h

As to `Cc1cc([N+](=O)[O-])c(S(=O)(=O)c2ccccc2)c([N+](=O)[O-])c1`, the TGI in the test on HT29 colon is 19.1 µM; with TK-10 renal, 32.4 µM; with SR leukemia, over 100 µM; in the test on 786-0 renal, 12.3 µM; in the test with OVCAR-8 ovarian, over 62.5 µM; in the test with RXF 393 renal, 4.8 µM. The compound further showed a TGI in the test on SF-539 CNS of 32.6 µM.

Regarding `O=C1/C(=C\c2cccc(Oc3ccccc3)c2)SC(c2ccccc2)N1c1cccc([N+](=O)[O-])c1` (stereo unspecified), the TGI with HT29 colon, with TK-10 renal, with NCI/ADR-RES ovarian, in the test with SR leukemia, in the test on T-47D breast and with 786-0 renal was over 100 µM in each case. In addition, the figures for the TGI with OVCAR-8 ovarian, in the test with RXF 393 renal and in the test on SF-539 CNS were over 100 µM, over 100 µM and 63.3 µM, respectively.

In the case of `COC(=O)C(C(=O)C(=O)NC1Nc2ccc(C)cc2S1)c1nc2ccc(Cl)cc2[nH]c1=O` (stereo unspecified), the TGI in the test on HT29 colon, in the test on TK-10 renal, with PC-3 prostate, with NCI/ADR-RES ovarian, with T-47D breast and in the test with 786-0 renal was over 100 µM each time. Moreover, the TGI in the test on OVCAR-8 ovarian, with RXF 393 renal and in the test on SF-539 CNS was over 100 µM each time.

For `CC(c1ccccc1)N1CC(C)(c2ccccc2)N(O)C(c2ccccc2)C1C` (stereo unspecified), the TGI in the test on HT29 colon was over 100 µM; in the test with TK-10 renal it was over 100 µM; in the test on 786-0 renal it was 30.2 µM; in the test on OVCAR-8 ovarian, over 100 µM; in the test with RXF 393 renal, 36.8 µM; in the test with SF-539 CNS it was 26.5 µM.

Regarding `O=S1(=O)OCCOS(=O)(=O)C1Cc1nc2ccccc2[nH]1`, the TGI with HT29 colon is over 100 µM; in the test with TK-10 renal, over 100 µM; in the test on PC-3 prostate it was 73.4 µM; in the test on NCI/ADR-RES ovarian, over 100 µM; with SR leukemia, over 100 µM; with 786-0 renal, over 100 µM. Also, the TGI with OVCAR-8 ovarian is over 100 µM.

Turning to `Nc1c(N=Nc2ccc(-c3ccc(N=Nc4c(O)ccc5cc(S(=O)(=O)O)cc(S(=O)(=O)O)c45)cc3)cc2)c(S(=O)(=O)O)cc2cc(S(=O)(=O)O)c(N=Nc3ccccc3)c(O)c12`, the TGI with HT29 colon, in the test with NCI/ADR-RES ovarian, in the test with OVCAR-8 ovarian, in the test with RXF 393 renal and with SF-539 CNS was over 100 µM in each case.

Take `COc1cc2cccc(N=Cc3c(Br)ccc(OC)c3OC(C)C)c2cc1OC`: the TGI is 93.7 µM in the test with HT29 colon; over 100 µM in the test on TK-10 renal; 69.9 µM in the test with 786-0 renal; over 100 µM with OVCAR-8 ovarian; over 100 µM in the test on SF-539 CNS.

In the case of `CC(=O)NC1=C(NCC(C)C)C(=O)c2ccccc2C1=O`, the TGI is over 100 µM in the test with HT29 colon; 40.9 µM in the test with TK-10 renal; 31.9 µM in the test on 786-0 renal; 47.2 µM with OVCAR-8 ovarian; 25.4 µM in the test on RXF 393 renal; 32.2 µM in the test with SF-539 CNS.

Consider `OC12CCCCCC1(N1CCOCC1)c1ccccc12` (stereo unspecified), for which the TGI in the test on HT29 colon, in the test on TK-10 renal, with 786-0 renal, in the test with OVCAR-8 ovarian, with RXF 393 renal and in the test on SF-539 CNS was over 100 µM in each case.

Consider `CCN(CC)CCCCC1CCN(CC(=O)N2c3ccccc3NC(=O)CC2C)CC1` (stereo unspecified), for which the TGI in the test with HT29 colon, with TK-10 renal, in the test on SR leukemia, in the test with 786-0 renal, with OVCAR-8 ovarian and in the test with RXF 393 renal was over 100 µM each time. Moreover, the TGI with SF-539 CNS is over 100 µM.

Turning to `COC(=O)CC(NC(=O)OCc1ccccc1)C(C(=O)OCc1ccccc1)C1(C)OCCO1` (stereo unspecified), the TGI is over 100 µM in the test with HT29 colon; over 100 µM with TK-10 renal; 58.2 µM in the test on SR leukemia; over 100 µM in the test on 786-0 renal; over 100 µM in the test on OVCAR-8 ovarian; over 100 µM with RXF 393 renal. The TGI in the test with SF-539 CNS was over 100 µM.

For `C=C1CC(Cn2cc(Br)c(=O)[nH]c2=O)(c2ccc(-c3ccccc3)cc2)OC1=O` (stereo unspecified), the TGI is 1.91 µM in the test on HT29 colon; 0.842 µM in the test with TK-10 renal; 3.31 µM with PC-3 prostate; 4.82 µM in the test with NCI/ADR-RES ovarian; 4.87 µM with T-47D breast; 2.29 µM with 786-0 renal. Also, the TGI in the test with OVCAR-8 ovarian amounted to 4.29 µM; in the test on SF-539 CNS it was 3.92 µM.

Take `Cc1cc2occ(-c3ccc(Cl)cc3)c2c(=O)o1`: the TGI in the test on HT29 colon, in the test with TK-10 renal, with SR leukemia, in the test with 786-0 renal, in the test on OVCAR-8 ovarian and with RXF 393 renal was over 100 µM in each case. The compound also showed a TGI in the test on SF-539 CNS of over 100 µM.

Consider `O=C(OCc1ccccc1C1CSCSC1)c1cc(C(=O)OCc2ccccc2C2CSCSC2)c(C(=O)OCc2ccccc2C2CSCSC2)cc1C(=O)OCc1ccccc1C1CSCSC1`, for which the TGI in the test with HT29 colon, in the test on TK-10 renal, in the test with SR leukemia, with 786-0 renal, in the test with OVCAR-8 ovarian and with RXF 393 renal was over 100 µM throughout. In the test with SF-539 CNS, this compound registered a TGI of over 100 µM.

As to `O=CNNC(=O)Nc1ccc(Cl)cc1`, the TGI with HT29 colon, in the test on TK-10 renal, with NCI/ADR-RES ovarian, with SR leukemia, with T-47D breast and in the test with 786-0 renal was over 100 µM throughout. Moreover, the TGI with OVCAR-8 ovarian, in the test on RXF 393 renal and in the test with SF-539 CNS was over 100 µM each time.

Take `O=c1c2c(nc3n1CCC3)sc1c(O)c(Br)ccc12`: the TGI was 33.1 µM with HT29 colon; 60.5 µM in the test on TK-10 renal; 54 µM in the test with SR leukemia; 37.4 µM with 786-0 renal; 24.2 µM with OVCAR-8 ovarian; over 100 µM in the test on RXF 393 renal. Besides, the TGI in the test on SF-539 CNS is 33 µM.

For the compound `Cc1cn([C@H]2[C@@H](CO)C[C@H]2O)c(=O)[nH]c1=O`, the TGI in the test on HT29 colon, with TK-10 renal, with PC-3 prostate, in the test on NCI/ADR-RES ovarian, with SR leukemia and with 786-0 renal was over 100 µM throughout. For the same compound, the TGI with OVCAR-8 ovarian, with RXF 393 renal and with SF-539 CNS was over 100 µM throughout.
